Data from ChEMBL document CHEMBL5625247, “Tetrahydro-β-carboline derivatives as potent histone deacetylase 6 inhibitors with broad-spectrum antiproliferative activity” (Eur J Med Chem, 2023).
pIC50: −log10 of the molar value.

Tests used:
Histone deacetylase 1 [1] = biological target: T1, Histone deacetylase 1 (Homo sapiens, UniProt Q13547); assay: Inhibition of HDAC1 (unknown origin) expressed in baculovirus infected in Sf9 cells using RHKKAc as substrate at 500 nM preincubated for 5 to 10 mins followed by substrate addition measured after 2 hrs by fluorescence based assay relative to control; details: time 5-130 min
[2] = biological target: T2, Protein deacetylase HDAC6 (Homo sapiens) (UniProt Q9UBN7); assay: Inhibition of HDAC6 (unknown origin) expressed in baculovirus infected in Sf9 cells using RHKKAc as substrate at 500 nM preincubated for 5 to 10 mins followed by substrate addition measured after 2 hrs by fluorescence based assay relative to control; details: time 5-130 min
T2 sequence (whole entry): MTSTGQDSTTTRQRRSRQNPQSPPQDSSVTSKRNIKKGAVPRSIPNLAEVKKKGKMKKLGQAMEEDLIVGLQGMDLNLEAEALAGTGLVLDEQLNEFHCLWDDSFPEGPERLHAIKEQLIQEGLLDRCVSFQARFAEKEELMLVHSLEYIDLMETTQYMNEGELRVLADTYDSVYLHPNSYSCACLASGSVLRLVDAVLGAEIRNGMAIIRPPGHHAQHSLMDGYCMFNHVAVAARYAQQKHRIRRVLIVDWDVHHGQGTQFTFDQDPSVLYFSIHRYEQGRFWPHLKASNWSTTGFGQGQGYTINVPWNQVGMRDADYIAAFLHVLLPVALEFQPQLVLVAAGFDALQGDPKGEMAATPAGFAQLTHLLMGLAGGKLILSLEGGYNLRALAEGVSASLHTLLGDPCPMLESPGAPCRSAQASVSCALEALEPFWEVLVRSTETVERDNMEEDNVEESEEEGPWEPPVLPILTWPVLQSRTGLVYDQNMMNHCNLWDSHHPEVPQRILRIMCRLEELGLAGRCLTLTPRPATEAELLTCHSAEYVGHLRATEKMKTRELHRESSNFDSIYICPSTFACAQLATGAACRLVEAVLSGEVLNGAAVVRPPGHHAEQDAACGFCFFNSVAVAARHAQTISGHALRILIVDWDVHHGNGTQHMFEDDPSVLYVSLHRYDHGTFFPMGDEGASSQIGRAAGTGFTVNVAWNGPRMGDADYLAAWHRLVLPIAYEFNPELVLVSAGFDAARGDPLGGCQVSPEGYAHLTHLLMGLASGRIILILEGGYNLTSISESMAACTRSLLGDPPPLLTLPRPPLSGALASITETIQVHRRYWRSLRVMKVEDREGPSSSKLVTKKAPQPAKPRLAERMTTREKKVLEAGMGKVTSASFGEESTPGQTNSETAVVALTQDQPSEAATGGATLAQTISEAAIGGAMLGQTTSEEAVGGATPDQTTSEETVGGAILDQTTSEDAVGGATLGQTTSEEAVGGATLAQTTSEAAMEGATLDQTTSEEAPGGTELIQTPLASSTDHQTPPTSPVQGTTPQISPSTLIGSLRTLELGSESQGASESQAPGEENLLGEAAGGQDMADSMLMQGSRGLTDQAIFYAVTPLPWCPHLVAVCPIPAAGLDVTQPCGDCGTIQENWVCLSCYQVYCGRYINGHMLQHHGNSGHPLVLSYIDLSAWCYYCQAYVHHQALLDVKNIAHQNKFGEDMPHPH

Histone deacetylase 1 [3] = biological target: T1, Histone deacetylase 1; assay: Inhibition of HDAC1 (unknown origin) expressed in baculovirus infected in Sf9 cells using RHKKAc as substrate preincubated for 5 to 10 mins followed by substrate addition measured after 2 hrs by fluorescence based assay
[4] = biological target: T3, Protein deacetylase HDAC6 (Homo sapiens, UniProt Q9UBN7); assay: Inhibition of HDAC6 (unknown origin) expressed in baculovirus infected in Sf9 cells using RHKKAc as substrate preincubated for 5 to 10 mins followed by substrate addition measured after 2 hrs by fluorescence based assay
T3 sequence (Q9UBN7 whole entry): T2 sequence (whole entry)

RPMI-8226 = assay: cells; assay type: functional, cell-based; details: Homo sapiens, RPMI-8226, 72 h

T1 sequence (Q13547 whole entry): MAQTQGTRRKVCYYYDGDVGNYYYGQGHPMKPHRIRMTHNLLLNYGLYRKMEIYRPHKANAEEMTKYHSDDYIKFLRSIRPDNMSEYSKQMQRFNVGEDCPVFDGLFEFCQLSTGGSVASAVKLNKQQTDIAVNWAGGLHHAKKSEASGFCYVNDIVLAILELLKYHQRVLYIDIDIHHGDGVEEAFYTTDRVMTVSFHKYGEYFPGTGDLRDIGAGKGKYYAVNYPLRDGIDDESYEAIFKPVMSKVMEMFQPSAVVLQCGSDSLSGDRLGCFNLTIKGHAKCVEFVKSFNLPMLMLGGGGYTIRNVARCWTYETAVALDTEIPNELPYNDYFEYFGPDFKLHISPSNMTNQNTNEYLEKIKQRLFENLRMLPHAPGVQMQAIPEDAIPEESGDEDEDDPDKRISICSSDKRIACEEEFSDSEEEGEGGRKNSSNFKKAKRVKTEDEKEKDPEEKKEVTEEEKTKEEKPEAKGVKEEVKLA

inhibition (Histone deacetylase 1 [1]) [%] | inhibition [2] [%] | pIC50 (Histone deacetylase 1 [3]) | pIC50 [4] | pIC50 (RPMI-8226) | SMILES
– | – | 7.39 | 8.60 | 6.17 | O=C(NO)c1ccc(CNC(=O)[C@H]2Cc3c([nH]c4ccccc34)[C@H](C3CCCC3)N2)cc1
90.6 | 96.4 | 7.29 | 8.63 | – | COc1ccc([C@@H]2N[C@@H](C(=O)NCc3ccc(C(=O)NO)cc3)Cc3c2[nH]c2ccccc32)cc1
35.8 | 82.3 | – | – | – | COc1ccc([C@H]2N[C@@H](C(=O)NCc3ccc(C(=O)NO)cc3)Cc3c2[nH]c2ccccc32)cc1
– | – | 6.74 | 7.98 | – | O=C(NO)c1ccc(CNC(=O)[C@H]2Cc3c([nH]c4ccccc34)[C@H](C3CC3)N2Cc2ccc(Cl)cc2)cc1
71.4 | 98.7 | 6.31 | 8.43 | – | COc1ccc([C@H]2N[C@H](C(=O)NCc3ccc(C(=O)NO)cc3)Cc3c2[nH]c2ccccc32)cc1

Second part, the compound before the results:

SMILES | inhibition (Histone deacetylase 1 [1]) [%] | inhibition [2] [%] | pIC50 (Histone deacetylase 1 [3]) | pIC50 [4] | pIC50 (RPMI-8226)
COc1ccc([C@@H]2N[C@H](C(=O)NCc3ccc(C(=O)NO)cc3)Cc3c2[nH]c2ccccc32)cc1 | 30.6 | 87.1 | – | – | –
O=C(NO)c1ccc(CNC(=O)[C@H]2Cc3c([nH]c4ccccc34)[C@H](c3ccccc3)N2)cc1 | – | – | 7.37 | 8.68 | 6.24
COc1ccc(C[C@H]2N[C@H](C(=O)NCc3ccc(C(=O)NO)cc3)Cc3c2[nH]c2ccccc32)cc1 | 38.1 | 81.5 | – | – | –
O=C(NO)c1ccc(CNC(=O)[C@H]2Cc3c([nH]c4ccccc34)[C@H](C3CC3)N2)cc1 | – | – | 7.42 | 8.36 | 6.08
COc1ccc([C@@H]2N[C@@H](C(=O)NCc3ccc(C(=O)NO)cc3)Cc3c2[nH]c2ccccc32)cc1OC | – | – | 7.11 | – | 6.05
O=C(NO)c1ccc(CNC(=O)[C@H]2Cc3c([nH]c4ccccc34)[C@H](c3ccc(Cl)cc3)N2CC2CC2)cc1 | – | – | 6.97 | – | –
COc1ccc(CN2Cc3[nH]c4ccccc4c3C[C@@H]2C(=O)NCc2ccc(C(=O)NO)cc2)cc1 | 32 | 83.4 | – | – | –
COc1ccc(CN2[C@@H](C(=O)NCc3ccc(C(=O)NO)cc3)Cc3c([nH]c4ccccc34)[C@@H]2C)cc1 | – | – | 6.90 | 8.05 | –
COc1ccc(CN2[C@H](C(=O)NCc3ccc(C(=O)NO)cc3)Cc3c([nH]c4ccccc34)[C@H]2C2CC2)cc1 | 43.2 | – | 5.77 | – | –
